Experimental data published in ChEMBL document CHEMBL4765448, “Multiple biological active 4-aminopyrazoles containing trifluoromethyl and their 4-nitroso-precursors: Synthesis and evaluation” (Eur J Med Chem, 2020).
Converted amounts (≈) assume the structure as drawn. The source made the active and inactive calls. The rule behind the calls is not given here.

Test system: Neisseria gonorrhoeae
Assay: Antibacterial activity against Neisseria gonorrhoeae
Format: functional

Q: With `CS(=O)(=O)c1ccc(-n2nc(C(F)(F)F)c(N=O)c2-c2ccccc2)cc1` as the molecule, how does the MIC read?
A: 62.5 µg/mL (≈ 158 µM)

Q: How did the MIC turn out when `CN[C@@H]1[C@H](O)[C@H](NC)[C@H]2O[C@@]3(O)C(=O)C[C@@H](C)O[C@H]3O[C@@H]2[C@H]1O` [SPECTINOMYCIN] was run?
A: 15.6 µg/mL (≈ 46.9 µM)

Test system: Escherichia coli
Assay: Antibacterial activity against Escherichia coli
Format: functional

Q: Which MIC does the source give for `CS(=O)(=O)c1ccc(-n2nc(C(F)(F)F)c(N=O)c2-c2ccccc2)cc1` here?
A: > 250 µg/mL

Q: How did the MIC turn out when `CN[C@@H]1[C@H](O)[C@H](NC)[C@H]2O[C@@]3(O)C(=O)C[C@@H](C)O[C@H]3O[C@@H]2[C@H]1O` [SPECTINOMYCIN] was run?
A: 15.6 µg/mL (≈ 46.9 µM)

Test system: Klebsiella pneumoniae
Assay: Antibacterial activity against Klebsiella pneumoniae
Format: functional

Q: `CS(=O)(=O)c1ccc(-n2nc(C(F)(F)F)c(N=O)c2-c2ccccc2)cc1` was tested. Which MIC did it give?
A: > 250 µg/mL

Q: For `CN[C@@H]1[C@H](O)[C@H](NC)[C@H]2O[C@@]3(O)C(=O)C[C@@H](C)O[C@H]3O[C@@H]2[C@H]1O` [SPECTINOMYCIN], which MIC is on record?
A: 15.6 µg/mL (≈ 46.9 µM)

Test system: Citrobacter braakii
Assay: Antibacterial activity against Citrobacter braakii
Format: functional

Q: Which MIC does the source give for `CS(=O)(=O)c1ccc(-n2nc(C(F)(F)F)c(N=O)c2-c2ccccc2)cc1` here?
A: > 250 µg/mL

Q: `CN[C@@H]1[C@H](O)[C@H](NC)[C@H]2O[C@@]3(O)C(=O)C[C@@H](C)O[C@H]3O[C@@H]2[C@H]1O` [SPECTINOMYCIN] was tested. Which MIC did it give?
A: 31.2 µg/mL (≈ 93.9 µM)

Test system: Proteus vulgaris
Assay: Antibacterial activity against Proteus vulgaris
Format: functional

Q: For `CS(=O)(=O)c1ccc(-n2nc(C(F)(F)F)c(N=O)c2-c2ccccc2)cc1`, which MIC is on record?
A: > 250 µg/mL

Q: Which MIC does the source give for `CN[C@@H]1[C@H](O)[C@H](NC)[C@H]2O[C@@]3(O)C(=O)C[C@@H](C)O[C@H]3O[C@@H]2[C@H]1O` [SPECTINOMYCIN] here?
A: 1.25 µg/mL (≈ 3.76 µM)

Test system: Serratia marcescens
Assay: Antibacterial activity against Serratia marcescens
Format: functional

Q: Which MIC does the source give for `CS(=O)(=O)c1ccc(-n2nc(C(F)(F)F)c(N=O)c2-c2ccccc2)cc1` here?
A: > 250 µg/mL

Q: `CN[C@@H]1[C@H](O)[C@H](NC)[C@H]2O[C@@]3(O)C(=O)C[C@@H](C)O[C@H]3O[C@@H]2[C@H]1O` [SPECTINOMYCIN] was tested. Which MIC did it give?
A: 15.6 µg/mL (≈ 46.9 µM)

Test system: Shigella flexneri
Assay: Antibacterial activity against Shigella flexneri
Format: functional

Q: For `CS(=O)(=O)c1ccc(-n2nc(C(F)(F)F)c(N=O)c2-c2ccccc2)cc1`, which MIC is on record?
A: > 250 µg/mL

Q: `CN[C@@H]1[C@H](O)[C@H](NC)[C@H]2O[C@@]3(O)C(=O)C[C@@H](C)O[C@H]3O[C@@H]2[C@H]1O` [SPECTINOMYCIN] was tested. Which MIC did it give?
A: 7.8 µg/mL (≈ 23.5 µM)

Test system: Pseudomonas aeruginosa
Assay: Antibacterial activity against Pseudomonas aeruginosa
Format: functional

Q: With `CS(=O)(=O)c1ccc(-n2nc(C(F)(F)F)c(N=O)c2-c2ccccc2)cc1` as the molecule, how does the MIC read?
A: > 250 µg/mL

Q: Which MIC does the source give for `CN[C@@H]1[C@H](O)[C@H](NC)[C@H]2O[C@@]3(O)C(=O)C[C@@H](C)O[C@H]3O[C@@H]2[C@H]1O` [SPECTINOMYCIN] here?
A: 2.5 µg/mL (≈ 7.52 µM)

Test system: Streptococcus pyogenes
Assay: Antibacterial activity against Streptococcus pyogenes
Format: functional

Q: For `CS(=O)(=O)c1ccc(-n2nc(C(F)(F)F)c(N=O)c2-c2ccccc2)cc1`, which MIC is on record?
A: > 250 µg/mL

Test system: Staphylococcus aureus
Assay: Antibacterial activity against Staphylococcus aureus
Format: functional

Q: For `CS(=O)(=O)c1ccc(-n2nc(C(F)(F)F)c(N=O)c2-c2ccccc2)cc1`, which MIC is on record?
A: > 250 µg/mL

Q: `CN[C@@H]1[C@H](O)[C@H](NC)[C@H]2O[C@@]3(O)C(=O)C[C@@H](C)O[C@H]3O[C@@H]2[C@H]1O` [SPECTINOMYCIN] was tested. Which MIC did it give?
A: 31.2 µg/mL (≈ 93.9 µM)

Test system: Staphylococcus aureus
Assay: Antibacterial activity against methicillin resistant Staphylococcus aureus
Format: functional

Q: `CS(=O)(=O)c1ccc(-n2nc(C(F)(F)F)c(N=O)c2-c2ccccc2)cc1` was tested. Which MIC did it give?
A: 31.2 µg/mL (≈ 78.9 µM)

Test system: Trichophyton rubrum
Assay: Antifungal activity against Trichophyton rubrum
Format: functional

Q: `CCC(C)n1ncn(-c2ccc(N3CCN(c4ccc(OCC5COC(Cn6cncn6)(c6ccc(Cl)cc6Cl)O5)cc4)CC3)cc2)c1=O` (configuration not stated) [ITRACONAZOLE] was tested. Which MIC did it give?
A: 0.06 µg/mL (≈ 0.085 µM)

Q: Which MIC does the source give for `CS(=O)(=O)c1ccc(-n2nc(C(F)(F)F)c(N=O)c2-c2ccccc2)cc1` here?
A: 200 µg/mL (≈ 506 µM)

Test system: Nannizzia gypsea
Assay: Antifungal activity against Trichophyton gypseum
Format: functional

Q: `CCC(C)n1ncn(-c2ccc(N3CCN(c4ccc(OCC5COC(Cn6cncn6)(c6ccc(Cl)cc6Cl)O5)cc4)CC3)cc2)c1=O` (configuration not stated) [ITRACONAZOLE] was tested. Which MIC did it give?
A: 0.06 µg/mL (≈ 0.085 µM)

Q: How did the MIC turn out when `CS(=O)(=O)c1ccc(-n2nc(C(F)(F)F)c(N=O)c2-c2ccccc2)cc1` was run?
A: 200 µg/mL (≈ 506 µM)

Test system: Trichophyton tonsurans
Assay: Antifungal activity against Trichophyton tonsurans
Format: functional

Q: `CCC(C)n1ncn(-c2ccc(N3CCN(c4ccc(OCC5COC(Cn6cncn6)(c6ccc(Cl)cc6Cl)O5)cc4)CC3)cc2)c1=O` (configuration not stated) [ITRACONAZOLE] was tested. Which MIC did it give?
A: 0.19 µg/mL (≈ 0.269 µM)

Q: How did the MIC turn out when `CS(=O)(=O)c1ccc(-n2nc(C(F)(F)F)c(N=O)c2-c2ccccc2)cc1` was run?
A: > 200 µg/mL

Test system: Trichophyton violaceum
Assay: Antifungal activity against Trichophyton violaceum
Format: functional

Q: Which MIC does the source give for `CCC(C)n1ncn(-c2ccc(N3CCN(c4ccc(OCC5COC(Cn6cncn6)(c6ccc(Cl)cc6Cl)O5)cc4)CC3)cc2)c1=O` (configuration not stated) [ITRACONAZOLE] here?
A: 0.19 µg/mL (≈ 0.269 µM)

Q: How did the MIC turn out when `CS(=O)(=O)c1ccc(-n2nc(C(F)(F)F)c(N=O)c2-c2ccccc2)cc1` was run?
A: > 200 µg/mL

Test system: Trichophyton interdigitale
Assay: Antifungal activity against Trichophyton mentagrophytes var. interdigitale
Format: functional

Q: With `CCC(C)n1ncn(-c2ccc(N3CCN(c4ccc(OCC5COC(Cn6cncn6)(c6ccc(Cl)cc6Cl)O5)cc4)CC3)cc2)c1=O` (configuration not stated) [ITRACONAZOLE] as the molecule, how does the MIC read?
A: 0.095 µg/mL (≈ 0.135 µM)

Q: How did the MIC turn out when `CS(=O)(=O)c1ccc(-n2nc(C(F)(F)F)c(N=O)c2-c2ccccc2)cc1` was run?
A: 200 µg/mL (≈ 506 µM)

Test system: Epidermophyton floccosum
Assay: Antifungal activity against Epidermophyton floccosum
Format: functional

Q: With `CCC(C)n1ncn(-c2ccc(N3CCN(c4ccc(OCC5COC(Cn6cncn6)(c6ccc(Cl)cc6Cl)O5)cc4)CC3)cc2)c1=O` (configuration not stated) [ITRACONAZOLE] as the molecule, how does the MIC read?
A: 0.19 µg/mL (≈ 0.269 µM)

Q: `CS(=O)(=O)c1ccc(-n2nc(C(F)(F)F)c(N=O)c2-c2ccccc2)cc1` was tested. Which MIC did it give?
A: 200 µg/mL (≈ 506 µM)

Test system: Microsporum canis
Assay: Antifungal activity against Microsporum canis
Format: functional

Q: With `CCC(C)n1ncn(-c2ccc(N3CCN(c4ccc(OCC5COC(Cn6cncn6)(c6ccc(Cl)cc6Cl)O5)cc4)CC3)cc2)c1=O` (configuration not stated) [ITRACONAZOLE] as the molecule, how does the MIC read?
A: > 100 µg/mL

Q: For `CS(=O)(=O)c1ccc(-n2nc(C(F)(F)F)c(N=O)c2-c2ccccc2)cc1`, which MIC is on record?
A: 200 µg/mL (≈ 506 µM)

Test system: Candida albicans
Assay: Antifungal activity against Candida albicans
Format: functional

Q: `CCC(C)n1ncn(-c2ccc(N3CCN(c4ccc(OCC5COC(Cn6cncn6)(c6ccc(Cl)cc6Cl)O5)cc4)CC3)cc2)c1=O` (configuration not stated) [ITRACONAZOLE] was tested. Which MIC did it give?
A: > 100 µg/mL

Q: `CS(=O)(=O)c1ccc(-n2nc(C(F)(F)F)c(N=O)c2-c2ccccc2)cc1` was tested. Which MIC did it give?
A: > 200 µg/mL

Test system: Rattus norvegicus
Assay: Antiinflammatory activity in rat model of carrageenan-induced paw edema assessed as inhibition of hind paw swelling at 15 mg/kg, ip measured after 5 hrs
Format: functional, organism-based

Q: `CS(=O)(=O)c1ccc(-n2nc(C(F)(F)F)c(N=O)c2-c2ccccc2)cc1` was tested. Which Activity did it give?
A: Active
